# In patent US11680939B2, “Systems and methods for detecting bioactive compounds using sensors with pre-stimulated cells” (priority 2019, dated 2023):
# System: sensor cells
# Experiment: Impedance response of a sensor with photosensitive living cells to light pulses on exposure to a cytotoxin (FIG. 9)
# Assay type: cell-based
# Settings: toxin sample vs. clean sample, optically stimulated sensor cells
# Excerpt: FIG. 2 illustrates an exemplary behavior of sensor cells when exposed to light according to some embodiments of the present invention. Some embodiments employ sensor cells which are genetically modified to express an opsin (e.g., channel rhodopsin, without loss of generality), and/or other channel proteins with a role in maintaining cellular homeostasis (e.g., potassium channel ROMK1, without loss of generality). In the illustrated example, exposure to light induces a sudden intake of sodium ions through the cell membrane, which may substantially change the membrane potential and therefore the measured impedance of the respective cell. […]
# FIGS. 4-A-B show exemplary impedance responses of a sensor to a single light pulse and to a pulse train, respectively, according to some embodiments of the present invention wherein the sensor is prepared to contain cells having optically-sensitive ion channels. As the cellular membrane potential changes in response to the light pulse(s), the change is registered in the measured impedance of the sensor. […] This observation enables some embodiments of the present invention to detect and/or quantitate the target analyte from time series of impedance measurements. […]
# A step 120 acquires a target impedance time series comprising a plurality of values, at least two of which are determined at distinct moments in time. […]
smiles,measurement,value
C[C@@H]1O[C@@H](O[C@H]2C[C@@H](O)[C@]3(CO)[C@H]4[C@H](O)C[C@]5(C)[C@@H](C6=CC(=O)OC6)CC[C@]5(O)[C@@H]4CC[C@]3(O)C2)[C@H](O)[C@H](O)[C@H]1O [ouabain],"response of the sensor to exposure to a cytotoxin (impedance response, membrane repolarization after light pulses)",visible modifications of cell homeostasis
